IC50 data for 25 compounds are collected here from ChEMBL document CHEMBL1136278, “Synthesis and anticancer effect of B-ring trifluoromethylated flavonoids” (Bioorg Med Chem Lett, 2003).

The assay relates to SGC-7901. Briefly: In vitro anti-cancer activity against SGC-7901 cell. In kind it is functional, cell-based. The conditions noted are these: Homo sapiens.
For `COc1ccc2c(c1)O/C(=C\c1ccc(C(F)(F)F)cc1)C2=O`, the IC50 was found to be 21.2 µM.

For the compound `CCCCCCCOc1cc(OCCCCCCC)c2c(=O)cc(-c3ccc(C(F)(F)F)cc3)oc2c1`, the IC50 is 30.8 µM.

Take `C=CCOc1ccc2c(=O)cc(-c3ccc(C(F)(F)F)cc3)oc2c1`: the IC50 was found to be 5.26 µM.

`O=c1cc(-c2ccc(C(F)(F)F)cc2)oc2cc(O)ccc12` had a concentration for half-maximal inhibition (IC50) of 17.8 µM.

On to `CCCCCCCCOc1cc(OCCCCCCCC)c2c(=O)cc(-c3ccc(C(F)(F)F)cc3)oc2c1`, for which the IC50 came to 18.1 µM.

With `CCCOc1ccc2c(=O)cc(-c3ccc(C(F)(F)F)cc3)oc2c1`, half-maximal inhibition (IC50) required 5.61 µM.

In turn, `O=c1cc(-c2ccc(C(F)(F)F)cc2)oc2cc(OCc3ccccc3)cc(OCc3ccccc3)c12` registered an IC50 of 5 µM. This IC50 and that of the compound before are within 1.5-fold of each other.

Compound `CCOc1cc(OCC)c2c(=O)cc(-c3ccc(C(F)(F)F)cc3)oc2c1` showed an IC50 of 44 µM.

Consider `COc1cc(O)c2c(=O)cc(-c3ccccc3)oc2c1C(F)(F)F`, for which the IC50 came to 5.9 µM.

Take `O=C1/C(=C/c2ccc(C(F)(F)F)cc2)Oc2cc(O)ccc21`: it took 4.31 µM to reach half-maximal inhibition (IC50).

Compound `CCCCCCCCOc1ccc2c(=O)cc(-c3ccc(C(F)(F)F)cc3)oc2c1` registered an IC50 of 4.16 µM.

Take `CCOc1ccc2c(=O)cc(-c3ccc(C(F)(F)F)cc3)oc2c1`: the IC50 was found to be 28.5 µM. This IC50 is about 6.9-fold higher than that of the compound before.

Take `CCOc1ccc2c(c1)O/C(=C\c1ccc(C(F)(F)F)cc1)C2=O`: it took 15.6 µM to reach half-maximal inhibition (IC50).

On to `CCOc1cc(OCC)c2c(=O)c(CC)c(-c3ccc(C(F)(F)F)cc3)oc2c1`, for which the IC50 is 72.5 µM.

For the compound `CCCOc1cc(OCCC)c2c(=O)cc(-c3ccc(C(F)(F)F)cc3)oc2c1`, the IC50 is 2.7 µM.

In the case of `CCCCCCCCCCOc1cc(OCCCCCCCCCC)c2c(=O)cc(-c3ccc(C(F)(F)F)cc3)oc2c1`, the IC50 is 9.02 µM.

Turning to `CCCOc1cc(OCCC)c2c(=O)c(CCC)c(-c3ccc(C(F)(F)F)cc3)oc2c1`, the IC50 turned out to be 8.64 µM.

`COc1cc(OC)c2c(=O)cc(-c3ccc(C(F)(F)F)cc3)oc2c1` showed an IC50 of 4.37 µM.

For `O=c1cc(-c2ccc(C(F)(F)F)cc2)oc2cc(O)cc(O)c12`, the IC50 amounted to 6.62 µM.

Consider `CC(=O)Oc1c(C(F)(F)F)c(O)c2c(=O)cc(-c3ccccc3)oc2c1C(F)(F)F`, for which the IC50 came out at 8.6 µM.

`CCCCCCCOc1ccc2c(c1)O/C(=C\c1ccc(C(F)(F)F)cc1)C2=O` had an IC50 of 5.35 µM.

As for `COc1ccc2c(=O)cc(-c3ccc(C(F)(F)F)cc3)oc2c1`, 8.28 µM corresponded to half-maximal inhibition (IC50).

Regarding `O=C1/C(=C/c2ccc(C(F)(F)F)cc2)Oc2cc(OCc3ccccc3)ccc21`, half-maximal inhibition (IC50) required 14.7 µM.

`C=CCOc1ccc2c(c1)O/C(=C\c1ccc(C(F)(F)F)cc1)C2=O`: the IC50 was 3.05 µM.

`COc1cc(OC)c2c(=O)c(C)c(-c3ccc(C(F)(F)F)cc3)oc2c1` had an IC50 of 10.1 µM.
